TGI data for ten molecules are collected here from PubChem BioAssay (NCI).

The structures appear in SMILES notation.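 Results reflect a 48-hour exposure of cells in 96-well plates to compound at five concentrations. TGI is the concentration that stops growth completely.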

Among the test systems are OVCAR-3 ovarian; RPMI-8226 leukemia; SK-OV-3 ovarian; ACHN renal; SNB-75 CNS; COLO 205 colon; K-562 leukemia; NCI-H522 lung; MCF7 breast; SW-620 colon; TK-10 renal; T-47D breast; SK-MEL-5 melanoma; HL-60(TB) leukemia; MDA-MB-231 breast.
Common to all, as to experiment: NCI-60 cell line screen, 48 h

In the case of `COC/C=C\[C@]1(O)CCCC[C@@H]1CC(OC)OC`, the TGI in the test with OVCAR-3 ovarian, in the test on RPMI-8226 leukemia, in the test on SK-OV-3 ovarian, with ACHN renal, in the test on SNB-75 CNS and in the test with COLO 205 colon was more than 100 µM in each case. The TGI with K-562 leukemia, in the test on NCI-H522 lung, in the test on MCF7 breast, in the test with SW-620 colon, in the test on TK-10 renal and in the test on T-47D breast was more than 100 µM throughout. In addition, the TGI in the test on SK-MEL-5 melanoma was more than 100 µM; in the test with HL-60(TB) leukemia, 81.8 µM; in the test on MDA-MB-231 breast, more than 100 µM.
For the molecule `CC1ON2CCCC2[C@H]1C(=O)N1C2CC3CCC2(CS1(=O)=O)C3(C)C` (stereo not given in full), the TGI in the test with OVCAR-3 ovarian, in the test with RPMI-8226 leukemia, in the test on SK-OV-3 ovarian, in the test on ACHN renal, in the test with SNB-75 CNS and with COLO 205 colon was more than 100 µM in each case. Also, the TGI in the test on K-562 leukemia, in the test on NCI-H522 lung, in the test on MCF7 breast, in the test with SW-620 colon, in the test with TK-10 renal and in the test with T-47D breast was more than 100 µM throughout. For the same molecule, the TGI in the test with SK-MEL-5 melanoma, with HL-60(TB) leukemia and in the test with MDA-MB-231 breast was more than 100 µM each time.
Regarding `CC(C)(C)C1=CC(=C(c2ccc(-c3c4nc(c(-c5ccc(C(=C6C=C(C(C)(C)C)C(=O)C(C(C)(C)C)=C6)c6cc(C(C)(C)C)c(O)c(C(C)(C)C)c6)cc5)c5ccc([nH]5)c(-c5ccc(C(=C6C=C(C(C)(C)C)C(=O)C(C(C)(C)C)=C6)c6cc(C(C)(C)C)c(O)c(C(C)(C)C)c6)cc5)c5nc(c(-c6ccc(C(=C7C=C(C(C)(C)C)C(=O)C(C(C)(C)C)=C7)c7cc(C(C)(C)C)c(O)c(C(C)(C)C)c7)cc6)c6ccc3[nH]6)C=C5)C=C4)cc2)c2cc(C(C)(C)C)c(O)c(C(C)(C)C)c2)C=C(C(C)(C)C)C1=O`, the TGI in the test with OVCAR-3 ovarian, with RPMI-8226 leukemia, in the test with SK-OV-3 ovarian, in the test on ACHN renal, in the test with SNB-75 CNS and in the test on COLO 205 colon was more than 100 µM each time. Also, the TGI with K-562 leukemia, in the test on NCI-H522 lung, in the test with MCF7 breast, in the test on SW-620 colon, in the test on TK-10 renal and in the test on T-47D breast was more than 100 µM throughout. Besides, the TGI with SK-MEL-5 melanoma, in the test with HL-60(TB) leukemia and in the test on MDA-MB-231 breast was more than 100 µM each time.
Consider `O=C1N[C@@H](c2c[nH]c3cc(Br)ccc23)C(=O)N[C@H]1c1c[nH]c2cc(Br)ccc12`, for which the TGI in the test with OVCAR-3 ovarian was more than 100 µM; with RPMI-8226 leukemia it was more than 100 µM; with SK-OV-3 ovarian, more than 100 µM; in the test on ACHN renal, more than 100 µM; in the test with SNB-75 CNS, 90.1 µM; with COLO 205 colon, more than 100 µM. Also, the TGI with K-562 leukemia, in the test with NCI-H522 lung, in the test on MCF7 breast, with SW-620 colon, with TK-10 renal and in the test with T-47D breast was more than 100 µM in each case. Further, the TGI with SK-MEL-5 melanoma is more than 100 µM; in the test with HL-60(TB) leukemia, more than 100 µM; with MDA-MB-231 breast, 80.2 µM.
Regarding `Clc1ccc(-c2c(C3=NCCCN3)nnn2-c2ccc(Cl)cc2)cc1`, the TGI was more than 100 µM with OVCAR-3 ovarian; 62.4 µM in the test with RPMI-8226 leukemia; more than 100 µM in the test on SK-OV-3 ovarian; more than 100 µM in the test on ACHN renal; more than 72.2 µM with SNB-75 CNS; 32.8 µM with COLO 205 colon. The TGI with K-562 leukemia was 48.5 µM; with NCI-H522 lung, 64.3 µM; in the test with MCF7 breast it was more than 55.8 µM; in the test on SW-620 colon, more than 76.5 µM; with TK-10 renal, more than 77.5 µM; in the test with T-47D breast, more than 59.8 µM. Also, the TGI with SK-MEL-5 melanoma was 35.9 µM; in the test with HL-60(TB) leukemia, 48.1 µM; in the test with MDA-MB-231 breast, more than 77.7 µM.
With `CNC(=O)N1CN(c2ccccc2)C2(CCN(CCCC3(c4ccc(F)cc4)OCCO3)CC2)C1=O`, the TGI in the test with OVCAR-3 ovarian, in the test with RPMI-8226 leukemia, in the test with SK-OV-3 ovarian, with ACHN renal, in the test on SNB-75 CNS and in the test on COLO 205 colon was more than 100 µM throughout. Further, the TGI with K-562 leukemia, in the test on NCI-H522 lung, in the test with MCF7 breast, in the test on SW-620 colon, in the test with TK-10 renal and in the test with T-47D breast was more than 100 µM throughout. Besides, the TGI with SK-MEL-5 melanoma, in the test on HL-60(TB) leukemia and in the test with MDA-MB-231 breast was more than 100 µM in each case.
`Cc1ccc(/C=C2\CCC/C(=C\c3ccc(O)c(CN4CCCCC4)c3)C2=O)cc1`: the TGI in the test with OVCAR-3 ovarian is 36.5 µM; in the test with RPMI-8226 leukemia, more than 100 µM; in the test with SK-OV-3 ovarian it was 26.3 µM; in the test with ACHN renal it was 18.6 µM; in the test on SNB-75 CNS it was 22.6 µM; in the test on COLO 205 colon it was 44.6 µM. Further, the TGI is more than 38.3 µM in the test with K-562 leukemia; 17.9 µM in the test with NCI-H522 lung; 23.1 µM with MCF7 breast; 17.7 µM in the test with SW-620 colon; 37.9 µM with TK-10 renal; 60.2 µM in the test with T-47D breast. Besides, the TGI in the test with SK-MEL-5 melanoma is 19.1 µM; in the test with HL-60(TB) leukemia it was more than 100 µM; in the test with MDA-MB-231 breast it was 22.3 µM.
Regarding `O=c1oc2cc(O)ccc2c(O)c1C(c1ccccc1F)c1c(O)c2ccc(O)cc2oc1=O`, the TGI in the test on OVCAR-3 ovarian is more than 100 µM; in the test on RPMI-8226 leukemia it was 83.4 µM; in the test with SK-OV-3 ovarian, more than 100 µM; with ACHN renal it was more than 100 µM; in the test with SNB-75 CNS, more than 100 µM; in the test on COLO 205 colon, more than 100 µM. For the same molecule, the TGI in the test with K-562 leukemia was 69 µM; with NCI-H522 lung, more than 100 µM; in the test on MCF7 breast, more than 100 µM; in the test on SW-620 colon, more than 100 µM; with TK-10 renal, more than 100 µM; in the test on T-47D breast it was more than 100 µM. Also, the TGI in the test on SK-MEL-5 melanoma was more than 100 µM; with HL-60(TB) leukemia, 43.7 µM; in the test on MDA-MB-231 breast it was more than 100 µM.
For the molecule `CC(=NNC(=S)Nc1ccc(C)cc1)c1cccc(C(C)=NNC(=S)Nc2ccc(C)cc2)n1`, the TGI in the test on OVCAR-3 ovarian came out at 14.3 µM; in the test on RPMI-8226 leukemia, 85.8 µM; with SK-OV-3 ovarian it was 97.6 µM; with ACHN renal it was 95.2 µM; in the test on SNB-75 CNS, 85 µM; in the test on COLO 205 colon it was 43.8 µM. Besides, the TGI in the test with K-562 leukemia is 66.3 µM; in the test with NCI-H522 lung, 63.7 µM; in the test on MCF7 breast, more than 100 µM; with SW-620 colon it was 59.8 µM; in the test with TK-10 renal, more than 100 µM; with T-47D breast it was more than 100 µM. Also, the TGI with SK-MEL-5 melanoma was 38.7 µM; with HL-60(TB) leukemia, 15.7 µM; in the test with MDA-MB-231 breast it was more than 100 µM.
In the case of `CCn1c(SCC(=O)NNC(=S)Nc2ccc(C)cc2)nc2ccccc2c1=O`, the TGI in the test with OVCAR-3 ovarian, with RPMI-8226 leukemia, in the test with SK-OV-3 ovarian, with ACHN renal, with SNB-75 CNS and in the test on COLO 205 colon was more than 100 µM throughout. Besides, the TGI in the test with K-562 leukemia, in the test with NCI-H522 lung, with MCF7 breast, with SW-620 colon, in the test on TK-10 renal and in the test with T-47D breast was more than 100 µM each time. Besides, the TGI in the test with SK-MEL-5 melanoma, in the test with HL-60(TB) leukemia and with MDA-MB-231 breast was more than 100 µM throughout.
